Measured values taken from patent US7384920B2, “Use of stilbene compounds in the manufacture of medicament for the prevention and treatment of diabetes or retrovirus-associated diseases” (priority 2001, dated 2008).
“And” between values parts separate entries of the source, which are not always exact repeats. Equal entries are not always repeated.

Experiments:
[1] = tested on: normal rats; assay: Effect on glucose tolerance curve of normal rats; assay type: in vivo; design: Auc (area under glucose tolerance curve): unit not given beside the values; settings: for Glucose after medication 0′: 0 h after ip glucose 2 g/Kg; for Glucose after medication 30′: 30 min after ip glucose 2 g/Kg; for Glucose after medication 60′: 60 min after ip glucose 2 g/Kg; for Glucose after medication 120′: 120 min after ip glucose 2 g/Kg; for Auc (area under glucose tolerance curve): ip glucose 2 g/Kg, 0-2 hours; for Glucose (fasted): fasted 8 hours
Method: In these experiments, stilbene derivatives in examples 1-5 are administrated respectively to KM male mice or Wistar male rats pos for 12 days , then test animals were fasted for 8 hours, examined glucose values, and administrated the test compound. One hour later, administered ip of glucose 2 g/Kg (1.11 mol/L glucose solution). Determining the glucose values at 0, ½, 1, 2 hours after glucose injection and calculating the area under this glucose tolerance curve.

[2] = Solubility in organic solvents (identification); assay type: physicochemical; settings: organic solvents as named in the value
[3] = tested on: alloxan induced diabetic mice; assay: Hypoglycemic effect on glucose level of alloxan induced diabetic mice; assay type: in vivo; settings: for Postdosing glucose level / Predosing glucose level: alloxan diabetic KM male mice; for Predosing glucose level: before dosing
Method: The metformin or miglucan were used as positive control drugs. And the hypoglycemic effects were evaluated. Hypoglycemic effect of stilbene derivatives on glucose level of alloxan induced diabetic mice.
KM strain male mice which have been fasted for 5-8 hours are used and be injected intravenously of alloxan 80mg/Kg, and 72 hours later, selected those with glucose level>11.0 mmol/L as the diabetic model mice for drug evaluation. Compounds were administered pos for 12 days.

[4] = tested on: mice; assay: in vivo; assay type: in vivo
[5] = tested on: HBeAg expression; assay: Inhibition of HBeAg expression in 2.2.15 cells (ELISA of supernatant); assay type: cell-based; settings: 2.2.15 cells 10^5/ml
Method: Experimental method: use 10% DMEM(with G418 380 μg/ml)to cultivate 2.2.15 cells,
Add 1.5ml of 10^5 cell/ml to 24 well plate for cultivation, change the new cultivate fluid next day and add different amount of compound to it, cultivate each concentration of compound to 3 wells, then collect and freeze 200 μl of supernatant of 2.2.15 cell culture at day 2,4,6 cultivation. Measure HBeAg value of the supernatant by ELISA.
E3 are the same, OD optical density, IR inhibition rate, ctr control IR=[Ctr(P/N)−Agent(P/N)]/[Ctr(P/N)−2.1]

[6] = in vivo; assay type: in vivo; settings: mouse, in vivo, pos
[7] = normal rats N=6, 75 mg/Kg pos 12 days
[8] = normal rats N=6, 150 mg/Kg pos 12 days

For `COc1ccc(Cl)cc1C(=O)NCCc1ccc(S(=O)(=O)NC(=O)NC2CCCCC2)cc1` [Miglucan, reference compound], the “Glucose after medication 0′” value ([1]; normal rats N=6, 100 mg/Kg) was 2.7 ± 0.8 mmol/L and 3.4 ± 0.4 mmol/L, the “Glucose after medication 30′” value ([1]; normal rats N=6, 100 mg/Kg) was 11.5 ± 0.6 mmol/L and 8.7 ± 3.5 mmol/L and the “Glucose after medication 60′” value ([1]; normal rats N=6, 100 mg/Kg) was 7.8 ± 6.2 mmol/L and 5.3 ± 2.1 mmol/L. The “Glucose after medication 120′” value ([1]; normal rats N=6, 100 mg/Kg) was 4.1 ± 1.7 mmol/L and 3.8 ± 1.4 mmol/L and the “Auc (area under glucose tolerance curve)” value ([1]; normal rats N=6, 100 mg/Kg) was 883.1 ± 43.5 and 663.8 ± 220.2.

For `OC[C@H]1OC(Oc2cc(O)cc(C=Cc3ccc(O)cc3)c2)[C@H](O)[C@@H](O)[C@@H]1O` (some centres unmarked) [Compound E5], the “Glucose (fasted)” value [1, 7] was 4.6 ± 0.5 mmol/L, the “Glucose after medication 0′” value ([1]; normal rats N=6, 75 mg/Kg) was 4.9 ± 0.7 mmol/L and the “Glucose after medication 30′” value ([1]; normal rats N=6, 75 mg/Kg) was 12.0 ± 1.5 mmol/L. For the same compound, the “Glucose after medication 60′” value ([1]; normal rats N=6, 75 mg/Kg) was 7.4 ± 0.8 mmol/L, the “Glucose after medication 120′” value ([1]; normal rats N=6, 75 mg/Kg) was 6.7 ± 0.7 mmol/L and the “Auc (area under glucose tolerance curve)” value ([1]; normal rats N=6, 75 mg/Kg) was 966.8 ± 71.6. The “Glucose (fasted)” value [1, 8] was 4.7 ± 0.8 mmol/L, the “Glucose after medication 0′” value ([1]; normal rats N=6, 150 mg/Kg) was 4.3 ± 0.9 mmol/L and the “Glucose after medication 30′” value ([1]; normal rats N=6, 150 mg/Kg) was 10.2 ± 1.5 mmol/L. The “Glucose after medication 60′” value ([1]; normal rats N=6, 150 mg/Kg) was 6.3 ± 1.1 mmol/L, the “Glucose after medication 120′” value ([1]; normal rats N=6, 150 mg/Kg) was 5.7 ± 1.1 mmol/L and the “Auc (area under glucose tolerance curve)” value ([1]; normal rats N=6, 150 mg/Kg) was 836.3 ± 112.1. The “Solubility (in words)” value [2] was “easily soluble in acetone”, the Postdosing glucose level ([3]; 75 mg/kg pos for 12 days) was 21.79 ± 9.39 mmol/L and the Postdosing glucose level ([3]; 150 mg/kg pos for 12 days) was 21.05 ± 4.63 mmol/L. For the same compound, the Predosing glucose level ([3]; group 75 mg/kg) was 17.46 ± 5.86 mmol/L, the Predosing glucose level ([3]; group 150 mg/kg) was 17.92 ± 5.35 mmol/L and the MTD ([4]; mouse, in vivo) was >10000 mg/kg. For the same compound, the “Toxicity (in words)” value ([4]; mouse, in vivo) was “very low”.

In the case of `COc1cc(C=Cc2cc(O)cc(O[C@@H]3O[C@H](CO)[C@@H](O)[C@H](O)[C@H]3O)c2)ccc1O` [Compound E2, 3,4′,5-trihydroxy-3′-methyloxy stilbene-3-O-β-D glucoside], the “IR (%) inhibition rate of HBeAg” value ([5]; 10 μg/ml, Day 2) is reported as 71.43%, the “OD (HBeAg ELISA)” value ([5]; 10 μg/ml, Day 2) is reported as 0.199 and the “IR (%) inhibition rate of HBeAg” value ([5]; 10 μg/ml, Day 4) is reported as 45.75%. The “OD (HBeAg ELISA)” value ([5]; 10 μg/ml, Day 4) was 0.188, the “IR (%) inhibition rate of HBeAg” value ([5]; 10 μg/ml, Day 6) was 56.69% and the “OD (HBeAg ELISA)” value ([5]; 10 μg/ml, Day 6) was 0.251. The “IR (%) inhibition rate of HBeAg” value ([5]; 20 μg/ml, Day 2) was 40.43%, the “OD (HBeAg ELISA)” value ([5]; 20 μg/ml, Day 2) was 0.301 and the “IR (%) inhibition rate of HBeAg” value ([5]; 20 μg/ml, Day 4) was 9.15%. The “OD (HBeAg ELISA)” value ([5]; 20 μg/ml, Day 4) was 0.244, the “IR (%) inhibition rate of HBeAg” value ([5]; 20 μg/ml, Day 6) was 4.72% and the “OD (HBeAg ELISA)” value ([5]; 20 μg/ml, Day 6) was 0.347. It also gave a Postdosing glucose level ([3]; 250 mg/kg pos for 12 days) of 22.61 ± 6.07 mmol/L, a Postdosing glucose level ([3]; 500 mg/kg pos for 12 days) of 28.96 ± 8.21 mmol/L and a Postdosing glucose level ([3]; 1000 mg/kg pos for 12 days) of 24.64 ± 2.49 mmol/L. The Predosing glucose level ([3]; group 250 mg/kg) was 21.43 ± 5.04 mmol/L, the Predosing glucose level ([3]; group 500 mg/kg) was 22.98 ± 5.94 mmol/L and the Predosing glucose level ([3]; group 1000 mg/kg) was 21.38 ± 5.75 mmol/L. The MTD ([4]; mice ♀, pos) was >16872 mg/kg, the MTD ([4]; mice ♂, pos) was >18301 mg/kg and the “Toxicity (in words)” value ([4]; mice, pos, summary of Table 3) was “very low”.

For `CN(C)C(=N)N=C(N)N` [Metformin, reference compound], the Postdosing glucose level ([3]; 500 mg/kg pos for 12 days, 500 mg/kg) was 17.49 ± 5.33 mmol/L and 17.64 ± 1.00 mmol/L and 15.16 ± 8.53 mmol/L, the Predosing glucose level ([3]; group 500 mg/kg) was 22.81 ± 4.89 mmol/L and 21.15 ± 3.85 mmol/L and 17.10 ± 4.84 mmol/L and the “Hypoglycemic effect (in words)” value ([3]; alloxan induced diabetic mice, summary of Table 1) was “effective”.

With “3,3′,4′,5-quadrahydroxystilbene-4′-O-β-D-glucopyranoside [Compound E1]” the “IR (%) inhibition rate of HBeAg” value ([5]; 10 μg/ml, Day 2) was 57.75%, the “OD (HBeAg ELISA)” value ([5]; 10 μg/ml, Day 2) was 0.244 and the “IR (%) inhibition rate of HBeAg” value ([5]; 10 μg/ml, Day 4) was 32.68%. For the same compound, the “OD (HBeAg ELISA)” value ([5]; 10 μg/ml, Day 4) was 0.208, the “IR (%) inhibition rate of HBeAg” value ([5]; 10 μg/ml, Day 6) was 51.57% and the “OD (HBeAg ELISA)” value ([5]; 10 μg/ml, Day 6) was 0.228. The “IR (%) inhibition rate of HBeAg” value ([5]; 20 μg/ml, Day 2) was 63.83%, the “OD (HBeAg ELISA)” value ([5]; 20 μg/ml, Day 2) was 0.224 and the “IR (%) inhibition rate of HBeAg” value ([5]; 20 μg/ml, Day 4) was −62.75%. The “OD (HBeAg ELISA)” value ([5]; 20 μg/ml, Day 4) was 0.354, the “IR (%) inhibition rate of HBeAg” value ([5]; 20 μg/ml, Day 6) was 48.82% and the “OD (HBeAg ELISA)” value ([5]; 20 μg/ml, Day 6) was 0.235. For the same compound, the Postdosing glucose level ([3]; 250 mg/kg pos for 12 days) was 21.10 ± 5.73 mmol/L, the Postdosing glucose level ([3]; 500 mg/kg pos for 12 days) was 16.39 ± 5.32 mmol/L and the Postdosing glucose level ([3]; 1000 mg/kg pos for 12 days) was 16.54 ± 5.48 mmol/L. For the same compound, the Predosing glucose level ([3]; group 250 mg/kg) was 22.49 ± 4.63 mmol/L, the Predosing glucose level ([3]; group 500 mg/kg) was 22.76 ± 3.17 mmol/L and the Predosing glucose level ([3]; group 1000 mg/kg) was 22.65 ± 3.55 mmol/L.

In the case of `Oc1ccc(/C=C/c2cc(O)cc(O)c2)cc1` [Compound E], the “Glucose (fasted)” value [1, 7] is reported as 5.3 ± 0.9 mmol/L, the “Glucose after medication 0′” value ([1]; normal rats N=6, 75 mg/Kg) is reported as 4.9 ± 0.7 mmol/L and the “Glucose after medication 30′” value ([1]; normal rats N=6, 75 mg/Kg) is reported as 12.1 ± 2.3 mmol/L. For the same compound, the “Glucose after medication 60′” value ([1]; normal rats N=6, 75 mg/Kg) was 7.5 ± 0.8 mmol/L, the “Glucose after medication 120′” value ([1]; normal rats N=6, 75 mg/Kg) was 6.2 ± 0.9 mmol/L and the “Auc (area under glucose tolerance curve)” value ([1]; normal rats N=6, 75 mg/Kg) was 961.1 ± 115.9. For the same compound, the “Glucose (fasted)” value [1, 8] was 5.8 ± 0.6 mmol/L, the “Glucose after medication 0′” value ([1]; normal rats N=6, 150 mg/Kg) was 4.2 ± 0.4 mmol/L and the “Glucose after medication 30′” value ([1]; normal rats N=6, 150 mg/Kg) was 9.5 ± 2.1 mmol/L. For the same compound, the “Glucose after medication 60′” value ([1]; normal rats N=6, 150 mg/Kg) was 6.1 ± 1.2 mmol/L, the “Glucose after medication 120′” value ([1]; normal rats N=6, 150 mg/Kg) was 4.7 ± 0.7 mmol/L and the “Auc (area under glucose tolerance curve)” value ([1]; normal rats N=6, 150 mg/Kg) was 760.2 ± 119.6. For the same compound, the “Solubility (in words)” value [2] was “easily soluble in methyl alcohol, ethyl alcohol and acetone”, the Postdosing glucose level ([3]; 75 mg/kg pos for 12 days) was 20.01 ± 7.1 mmol/L and the Postdosing glucose level ([3]; 150 mg/kg pos for 12 days) was 18.36 ± 6.25 mmol/L. For the same compound, the Predosing glucose level ([3]; group 75 mg/kg) was 17.27 ± 4.60 mmol/L, the Predosing glucose level ([3]; group 150 mg/kg) was 17.87 ± 4.86 mmol/L and the “Toxicity (in words)” value ([4]; mouse, in vivo) was “very low”. The MTD ([6]; female, mice ♀) was > 6100 mg/kg and the MTD ([6]; male, mice ♂) was > 6000 mg/kg.

In the case of `COc1ccc(C=Cc2cc(O)cc(O[C@@H]3O[C@H](CO)[C@@H](O)[C@H](O)[C@H]3O)c2)cc1` [Compound E3, 3,5-dihydroxy-4′-methyloxy stilbene-3-O-β-O-D glucoside], the “IR (%) inhibition rate of HBeAg” value ([5]; 10 μg/ml, Day 2) is reported as 72.95%, the “OD (HBeAg ELISA)” value ([5]; 10 μg/ml, Day 2) is reported as 0.194 and the “IR (%) inhibition rate of HBeAg” value ([5]; 10 μg/ml, Day 4) is reported as 39.87%. For the same compound, the “OD (HBeAg ELISA)” value ([5]; 10 μg/ml, Day 4) was 0.197, the “IR (%) inhibition rate of HBeAg” value ([5]; 10 μg/ml, Day 6) was 71.65% and the “OD (HBeAg ELISA)” value ([5]; 10 μg/ml, Day 6) was 0.177. The “IR (%) inhibition rate of HBeAg” value ([5]; 20 μg/ml, Day 2) was 51.37%, the “OD (HBeAg ELISA)” value ([5]; 20 μg/ml, Day 2) was 0.265 and the “IR (%) inhibition rate of HBeAg” value ([5]; 20 μg/ml, Day 4) was 1.31%. The “OD (HBeAg ELISA)” value ([5]; 20 μg/ml, Day 4) was 0.256, the “IR (%) inhibition rate of HBeAg” value ([5]; 20 μg/ml, Day 6) was 48.43% and the “OD (HBeAg ELISA)” value ([5]; 20 μg/ml, Day 6) was 0.236. For the same compound, the MTD ([4]; mice ♀, pos) was >11200 mg/kg, the MTD ([4]; mice ♂, pos) was >11000 mg/kg and the “Toxicity (in words)” value ([4]; mice, pos, summary of Table 3) was “very low”.
